In PubChem BioAssay (NCI):
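Test compounds were applied to cells in 96-well plates for 48 hours at 5 doses. TGI: concentration producing complete growth inhibition.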

Columns and labels:
Test in all cases: growth of human tumour cells (NCI), 48 h
NCI-H23 lung = test system: NCI-H23 lung
SF-295 CNS = test system: SF-295 CNS
MOLT-4 leukemia = test system: MOLT-4 leukemia
SF-268 CNS = test system: SF-268 CNS
OVCAR-8 ovarian = test system: OVCAR-8 ovarian
SF-539 CNS = test system: SF-539 CNS
IGROV1 ovarian = test system: IGROV1 ovarian
A498 renal = test system: A498 renal
ACHN renal = test system: ACHN renal
CAKI-1 renal = test system: CAKI-1 renal
KM12 colon = test system: KM12 colon
MALME-3M melanoma = test system: MALME-3M melanoma

Row | Compound | TGI (NCI-H23 lung) [µM] | TGI (SF-295 CNS) [µM] | TGI (MOLT-4 leukemia) [µM] | TGI (SF-268 CNS) [µM] | TGI (OVCAR-8 ovarian) [µM] | TGI (SF-539 CNS) [µM] | TGI (IGROV1 ovarian) [µM] | TGI (A498 renal) [µM] | TGI (ACHN renal) [µM] | TGI (CAKI-1 renal) [µM] | TGI (KM12 colon) [µM] | TGI (MALME-3M melanoma) [µM]
1 | COC(=O)Cn1c(=O)oc2nc(-c3ccccc3)cc(C(F)(F)F)c21 | > 100 | > 100 | 71.3 | > 100 | > 100 | > 100 | > 100 | > 100 | > 100 | > 100 | > 100 | 
2 | C/C=C\C(CC(=O)OC)CC(=O)N(CCC1CN(S(=O)(=O)C(F)(F)F)c2ccccc21)Cc1ccc(OC)cc1OC (stereo not given) | > 100 | > 100 | > 100 | > 100 |  | > 100 | > 100 | > 100 | > 100 | > 100 | > 100 | > 100
3 | Cn1cc(-c2nnc(-c3ccc(Cl)cc3)[nH]c2=O)c2ccccc21 | > 100 | > 28.3 | 98.8 | > 100 | > 100 |  | > 100 | > 61 | > 76.1 | > 100 | > 23.9 | > 25.8
4 | O=C1C=C(c2ccccc2)O/C1=C\C(=O)c1ccc(Cl)cc1 | 65.8 |  | > 100 | 52.2 | 83.4 | > 100 | 35.8 | > 100 | 29.7 | 32.5 | 80.5 | 29.4
5 | COc1cc(C2OC[C@@H]3C(=O)OC[C@H]23)cc(O)c1OC (stereo not given in full) | > 100 | > 100 | > 100 | > 100 | > 100 | > 100 | > 100 | > 100 | > 100 | > 100 | > 100 | 
6 | C=C(Cl)C(C)(Cl)CCC(Cl)C(C)C (stereo not given) | > 100 | > 100 | > 100 | > 100 |  | > 100 | > 100 | > 100 | > 100 | > 100 | > 100 | > 100
7 | Cc1nc2c3c(ccc2[nH]c1=O)C(=O)c1ccccc1C3=O | > 100 | > 100 |  | > 100 | > 100 | > 100 | > 100 | > 100 | > 100 | > 100 | > 100 | > 100
8 | COc1ccc(/C=C/C(=O)c2sc(-c3cccnc3)nc2C)cc1 | > 100 | > 100 | 99.5 | > 100 | > 100 | 65 | > 100 | > 100 |  | > 100 | 44.5 | > 100
9 | CN1CCN(Cc2nc3c(s2)CCc2sccc2-3)CC1 | > 100 | > 100 | > 100 | > 100 | > 100 |  | > 100 | 83.4 | > 100 | > 100 | > 100 | > 100
10 | C/C(=N/O)c1sc(-c2nc(C)c(/C(C)=N\O)s2)nc1C | > 100 | > 100 | > 100 | > 100 | > 100 | > 100 | > 100 | > 100 | > 100 | > 100 |  | > 100
